Article PMC6643344, “Studying the Possibilities of Using 2-Halogen-Substituted Acetamides As Acyl Donors in Penicillin Acylase-Catalyzed Reactions” (Acta Naturae, 2019)

Target: T1, penicillin acylase from Escherichia coli (Escherichia coli, UniProt P06875)
T1 construct: gene pac; free enzyme in solution; mature alpha/beta heterodimer cut from one precursor (known biology)
Test: first-order inactivation, residual activity with NIPAB at […] nm
Assay type: biochemical
Settings: inactivation rate constant (given as kin x 10^4) at 0.1 M compound; 0.1 M potassium phosphate pH 7.5; 25°C; active site, turnover-linked; also a substrate

T1 sequence (P06875 27-235, looked up): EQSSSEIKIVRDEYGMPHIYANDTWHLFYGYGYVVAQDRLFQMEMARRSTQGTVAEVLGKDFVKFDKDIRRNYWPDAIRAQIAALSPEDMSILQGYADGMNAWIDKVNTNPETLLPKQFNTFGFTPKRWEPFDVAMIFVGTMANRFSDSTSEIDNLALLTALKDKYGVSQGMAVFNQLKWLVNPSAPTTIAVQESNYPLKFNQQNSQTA
T1 sequence (P06875 290-846, looked up): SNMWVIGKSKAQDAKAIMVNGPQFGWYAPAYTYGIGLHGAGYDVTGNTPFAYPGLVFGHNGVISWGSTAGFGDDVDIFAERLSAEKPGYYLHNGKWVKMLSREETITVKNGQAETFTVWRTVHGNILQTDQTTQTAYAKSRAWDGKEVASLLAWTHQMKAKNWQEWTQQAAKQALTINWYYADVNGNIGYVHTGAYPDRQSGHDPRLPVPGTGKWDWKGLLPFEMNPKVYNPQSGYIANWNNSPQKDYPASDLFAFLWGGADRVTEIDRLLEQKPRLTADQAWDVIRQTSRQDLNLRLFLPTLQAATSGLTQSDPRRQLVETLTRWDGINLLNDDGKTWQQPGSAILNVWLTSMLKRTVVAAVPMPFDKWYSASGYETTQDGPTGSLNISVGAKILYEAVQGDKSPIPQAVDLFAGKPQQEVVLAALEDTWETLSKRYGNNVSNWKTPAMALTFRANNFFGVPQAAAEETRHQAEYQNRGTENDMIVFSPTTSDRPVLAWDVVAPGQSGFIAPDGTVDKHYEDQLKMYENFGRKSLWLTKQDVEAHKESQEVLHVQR

SMILES | kin.10^4, min^-1
NC(=O)CI [2-iodoacetamide] | 364 ± 34 min^-1
NC(=O)CBr [2-bromoacetamide] | 47 ± 2 min^-1
NC(=O)CCl [2-chloroacetamide] | 1.1 ± 0.1 min^-1
